“Also recorded” adds a separate entry of the source.
Assays:
[1] = tested on: normal human lung fibroblast cells (WI 30); experiment: Toxicity in normal fibroblast cells (phase contrast images); format: cell-based; details: normal fibroblast cells (WI30), FIG. 3
Method: The cells used for the study, human breast adenocarcinoma (MDA-MB-231) and normal human lung fibroblast cells ([…]) were procured from NCCS, Pune, India, and ATCC, VA, USA, respectively. Cells were maintained in standard culture conditions in DMEM supplemented with 10% FBS and 100 units/ml penicillin/streptomycin under 5% CO2 at 37° C. in a humidified incubator. After 2-3 passages, the cells were seeded on cell culture dishes and were used for different experiments.
Morphological analysis of the cells treated with NIIST-AC-1 at different concentrations were monitored using phase contrast microscope Nikon EclipseTS100 (Nikon Instruments Inc., Melville, NY, USA, Magnification 20×) and SEM (Zeiss EVO 18 Special Edition) at ×2k and ×5k magnification.

[2] = tested on: caspase-9; experiment: Assay of caspase 9 (fluorometric, cell lysates); format: cell-based, human; details: MDA MB 231 cell lysates, LEHD-AFC
Method: The activities of the initiator caspase-9 and downstream executioner caspase-3 were measured using Fluorometric Assay Kit. The caspase activity in the cell lysates of control and treated cells were measured by using the fluorescent substrate DEVD-AFC (for caspase-3 activity) and LEHD-AFC (for caspase-9 activity). Samples were read at 400-nm excitation filter and 505-nm emission filter in a fluorescent microplate reader (BioTek Synergy HT) using Gen5™ ver 1.05.11 software, and the results were expressed as relative units in terms of fluorescence.

[3] = tested on: proteins in the extrinsic and intrinsic pathway of apoptosis; experiment: Protein array for expression of apoptotic proteins; format: cell-based, human; details: MDA MB 231 lysates
Method: The expression of various proteins in the extrinsic and intrinsic pathway of apoptosis on treatment with NIIST-AC-1 was analyzed by using antibody pair-based assay, where the 43 targets were captured on a membrane. Lysates of control and treated cells were spotted to the membrane as protein equivalents. Paired biotinylated detector antibodies and streptavidin HRP were used for development using chemiluminescent method. Comparison of the membrane were done using densitometry software.

[4] = tested on: MDA MB 231 cells; experiment: Anoikis assay; format: cell-based, human; details: MDA MB 231, anoikis chamber, 48 hrs
Method: The effect of NIIST-AC-1 on anoikis resistance was analyzed using Anoikis Assay Kit by following the manufacturer's protocol. The cells were seeded in ultralow attachment plate 9anoikis chamber) after pretreating with different concentrations of NIIST-AC-1. After 48 hrs, the cells were observed under the phase-contrast microscope (Nikon Eclipse TS100) for observing the attachment and images were captured using NIS-Elements 3.21.00 imaging software. The viability of the cells was also measured by MTT assay.

[5] = tested on: histone deacetylase 1 (HDAC-1); experiment: HDAC inhibition assay (colorimetric, cell lysates); format: biochemical, human; details: enzyme assay, MDA MB 231 cell lysates
Method: The histone deacetylase inhibitory activity was measured in the cell lysates using the colorimetric assay kit where we have used the substrate Ac-Lys (Ac)-pNA and trichostatin A as the positive control. After the reaction, the absorbance was measured at 400 nm and the percentage inhibition was calculated by comparing with the deacetylated standard Ac-Lys-pNA.

[6] = tested on: MDA MB 231 cells; experiment: Colony formation assay; format: cell-based, human; details: 48 hr pretreatment, 14 days
Method: The pretreated cells with different concentrations of NIIST-AC-1 for 48 hr were plated in six well plates and allowed to grow and colonize for 14 days. The colonies were stained with crystal violet for 2 hr after fixing with acetic acid and methanol. The visible colonies were photographed and the colon area was quantified using ImageJ 1.52p software.

[7] = tested on: MDA MB 231 cells; experiment: Glucose uptake study (2-NBDG, FACS); format: cell-based, human
Method: The effect of NIIST-AC-1 on the uptake of glucose was analyzed by flow cytometry using 2-NBDG. After incubation of the cells with different concentrations of NIIST-AC-1, the cell culture medium was replaced with medium containing fluorescent 2-NBDG and incubated for 30 minutes. Then the samples were analyzed using BD FACSAria II (BD Biosciences) at FITC range (excitation, 465 nm; emission 540-nm bandpass filter). The mean fluorescence intensities of different groups were analyzed by BD FACSDiva ver 6.1.3 software and corrected for autofluorescence from unlabeled cells.

[8] = tested on: MDA MB 231 cells; experiment: RNA sequencing whole transcriptome analysis and gene set enrichment; format: cell-based, human
Method: Toral RNA was isolated from the cells using RNeasy mini kit. 15 μg of cellular RNA was quality assessed (Bioanalyzer from Agilent Technologies) and used for mRNA library preparation. The mRNAs were fragmented, and the first strand of cDNA was synthesized from the cleaved RNA using random primers followed by second strand cDNA synthesis. The purified cDNA templates were enriched by PCR amplification to generate cDNA libraries. The developed libraries were presented to RNA sequencing facility and two rapid single-read 50 illumina HiSeq sequencing runs were performed. Raw reads from separate lanes of the same sample were merged for mapping. RNA sequencing was performed at Eurofins Genomics India Pvt. Ltd., Bengaluru 560048, Karnataka, India.
The output raw FASTQ files were analyzed using various tools of Galaxy platform to extract the differentially expressed genes as follows. The quality of the reads was analyzed using FastQC (Galaxy Version 0.72+galaxy1). The quality check reports were aggregated using MultiQC (Galaxy Version 1.9+galaxy1). Cutadapt (Galaxy Version 1.16.6) was used for adapter removal and filtering using threshold of minimum read length 20 and minimum quality (phred score) 20. Again, the quality was checked, and results were aggregated. The cleaned reads were mapped to a reference genome (Homo_sapiens.GRCh38.dna_sm.primary_assembly.fa.gz) and annotation file (Homo_sapiens.GRCh38.104.gtf.gz) using HISAT2 (Galaxy Version 2.1.0+galaxy7), a splice-aware alignment program. The output bam files are processed using StringTie (Galaxy Version 2.1.1) to assemble and quantitate RNA-Seq alignments into potential transcript. Later the Deseq2 (Galaxy Version 2.11.40.6+galaxy1) was used to determine normalized differentially expressed genes from the Stringtie output count tables. […] These differentially expressed genes were filtered using Filter (Galaxy Version 1.1.1) to extract significant ones by adding a filter of q-value<=0.05 and log 2 fold change >1.
The functional annotation (biological process, molecular function and pathways) was considered significant at False discovery rate (FDR B&H)<0.05. GSEA Preranked tool of standalone R program GSEA 4.1.0 was used to perform Gene Set Enrichment Analysis (GSEA) on ranked (log fold change based) list of total DEGs against CP: Canonical pathways (a pre-defined collection of 2922 gene sets) of Molecular Signatures Database (MSigDB). The enriched pathways with FDR qvalue less than 0.25 were considered significant.

[9] = tested on: MDA MB 231 cells; experiment: Growth inhibitory study of I-8 in combination with paclitaxel; format: cell-based, human; details: 5 μM I-8 in combination with paclitaxel
[10] = whole transcriptome, q-value<=0.05 and log 2 fold change >1

Question: COc1cc(-c2cc(C(=O)NCc3cc(C(F)(F)F)cc(C(F)(F)F)c3)[nH]n2)cc(OC)c1OC [I-8, N-(3,5-bis(trifluoromethyl)benzyl)-3-(3,4,5-trimethoxyphenyl)-1H-pyrazole-5-carboxamide] was tested. Which “cytotoxicity in normal fibroblasts” value [1] did it give?
Answer: The value was “without having cytotoxicity; also recorded: no toxic”.

Question: What about the “caspase 9 activity” value [2] of the same compound?
Answer: The value was “upregulated caspase activity”.

Question: And the “expression of apoptotic proteins (intrinsic and extrinsic pathways)” value [3]?
Answer: Its value is “upregulated the proteins involved in intrinsic and extrinsic pathways”.

Question: And the “detachment induced cell death (anoikis)” value [4]?
Answer: The value was “induced detachment induced cell death (anoikis)”.

Question: And the HDAC inhibitory activity [5]?
Answer: The HDAC inhibitory activity was “significant inhibition; also recorded: substantial histone deacetylase 1 (HDAC-1) inhibitory activity”.

Question: And the colony formation [6]?
Answer: Its colony formation is “inhibition of colony formation”.

Question: What about the glucose uptake [7] of the same compound?
Answer: The glucose uptake was “significant reduction in the uptake of glucose”.

Question: What about the “downregulated signaling pathways (gene set enrichment analysis)” value ([8]; downregulated genes vs canonical gene sets) of the same compound?
Answer: Its value is “downregulated many signaling pathways that are critical in the cell death process”.

Question: And the “upregulated signaling pathways (gene set enrichment analysis)” value ([8]; upregulated genes vs canonical gene sets)?
Answer: Its value is “upregulation of signaling pathways of ER stress induced apoptosis, UPR response, autophagy, HDAC acetylation”.

Question: What about the “number of downregulated genes” value [8, 10] of the same compound?
Answer: The value was 1642 genes.

Question: And the “number of upregulated genes” value [8, 10]?
Answer: Its value is 1337 genes.

Question: And the “lowering of paclitaxel concentration required for 50% growth inhibition” value [9]?
Answer: The value was 10 times.
